The text below walks through data of publication PMC3407958 (Pharmacotherapy, 2010).

The conditions of data set [1]: three weeks of garlic caplet supplementation; cited from earlier work.
The conditions of data set [2]: human, in vivo.
Data set [3] concerns intestinal and hepatic CYP3A. The note with it: cited from earlier work.
In the next data set the test system is CYP3A. It is filed as in vivo, human (healthy volunteers). As to conditions: for Cl/F / AUC(0-inf): geometric mean (90% CI); for AUC(0-inf): AUC0-∞, midazolam 8 mg single oral dose.
For data set [4] the following is noted: human, in vivo. This is another data set of the same source.
The next data set can be described thus: clinical. As to conditions: human, in vivo.
[5] abbreviates: Post-Echinacea/Pre-Echinacea, GMR (90% CI).
[6] abbreviates: Post-Echinacea/Pre-Echinacea, GMR (90% CI), listed as Midazolam.
Setting [7] is: midazolam 8 mg oral, 28 days of echinacea, P > 0.05.

The structures appear in SMILES notation. Where two headings read alike, the source gives them in different places. Marks after values point to notes of the source that are not given here.

Take `CC(C)(C)NC(=O)[C@@H]1C[C@@H]2CCCC[C@@H]2CN1C[C@@H](O)[C@H](Cc1ccccc1)NC(=O)[C@H](CC(N)=O)NC(=O)c1ccc2ccccc2n1` [saquinavir]: in data set [1], the “Decrease in AUC of saquinavir” value was 51%.

With `CC(C)c1nc(CN(C)C(=O)N[C@H](C(=O)N[C@@H](Cc2ccccc2)C[C@H](O)[C@H](Cc2ccccc2)NC(=O)OCc2cncs2)C(C)C)cs1` [ritonavir], in data set [2], the “T ½” value is 5.34 (4.46–6.22) hr and the Tmax was 1.8 (0–4.0) ^c hr.

Turning to `Cc1ncc2n1-c1ccc(Cl)cc1C(c1ccccc1F)=NC2` [midazolam], the “Increase in intestinal availability of midazolam” value in data set [3] (after E purpurea 1600 mg total daily dose for 8 days) was 85%. In addition, the “Increase in oral availability of midazolam” value in data set [3] (after echinacea 400 mg 4 times daily for 8 days, P = 0.028) is roughly 43%. In addition, the Cl/F with CYP3A (Post-Echinacea (28 days), midazolam 8 mg oral) is on record as 77 (55–98) mL/hr. In addition, in the data set with CYP3A (Post-Echinacea (28 days), midazolam 8 mg oral, median (range)), the Tmax was 0.5 (0.5–1.5) ^c hr. In addition, in the data set with CYP3A (setting [5]), the “AUC0-∞ geometric mean ratio” value is recorded as 0.73 (0.61, 0.85); the “Cl/F geometric mean ratio” value was 1.37 (1.10, 1.63); the “Cmax geometric mean ratio” value is listed as 0.77 (0.58–0.96); the “T ½ geometric mean ratio” value is given as 0.55 (0.40, 0.70). For the same molecule, in the data set on CYP3A (setting [6]), the “AUC0-∞ geometric mean ratio” value is reported as 0.73 (0.61–0.85), the “Cl/F geometric mean ratio” value is given as 1.37 (1.10–1.63) and the “T ½ geometric mean ratio” value is 0.55 (0.40–0.70). In the data set on CYP3A (Pre-Echinacea, midazolam 8 mg oral), the Cl/F is on record as 56 (46–66) mL/hr. In the data set with CYP3A (after 28 days of E purpurea, P = 0.008), the “Change in midazolam exposure after E purpurea” value is reported as −27%. Moreover, in the data set on CYP3A (after 28 days of E purpurea, P = 0.02), the “Increase in midazolam apparent oral clearance after E purpurea” value is 37%. The “Reduction of midazolam half-life after E purpurea” value with CYP3A (after 28 days of E purpurea, P = 0.051) amounted to 45%. In addition, in the data set on CYP3A (human, plasma, po, 8 mg), the Tmax was 0.5 h. For the same molecule, in the data set with CYP3A (human, plasma, po, 8 mg, Post-Echinacea (28 days, 500 mg three times daily)), the area under the curve AUC(0-inf) came to 104 ng·h/mL. Besides, the total exposure AUC(0-inf) with CYP3A (human, plasma, po, 8 mg, Pre-Echinacea) came to 143 ng·h/mL. Further, in the data set on CYP3A (setting [7]), the “Change of Cmax after echinacea administration” value is given as “unchanged” and the “Change of Tmax after echinacea administration” value is given as “unchanged”.

`Cc1cccc(C)c1OCC(=O)N[C@@H](Cc1ccccc1)[C@@H](O)C[C@H](Cc1ccccc1)NC(=O)[C@H](C(C)C)N1CCCNC1=O` [lopinavir]: the Tmax (in data set [4]; in the data set “clinical”) was 2 h throughout. For the same molecule, the “T ½” value in data set [2] is listed as 9.5 (7.4–11.6) hr.
